Laboratory results: patent US6387896B1, “Bicyclic oxazolidinones as antibacterial agents” (Pharmacia & Upjohn Co., priority 1999, dated 2002)
Converted amounts (≈) assume the structure as drawn.

Tests used:
[1] = system: Methicillin-susceptible S. aureus UC® 9213; experiment: Minimum inhibitory concentration (MIC) by agar dilution, S. aureus; format: cell-based; conditions: Staphylococcus aureus, UC9213, lowest concentration that inhibits visible growth
From the text: (§1) The oxazolidinone antibacterial agents of this invention have useful activity against a variety of organisms. The in vitro activity of compounds of this invention can be assessed by standard testing procedures such as the determination of minimum inhibitory concentration (MIC) by agar dilution as described in “Approved Standard. Methods for Dilution Antimicrobial Susceptibility Tests for Bacteria That Grow Aerobically”, 3rd. ed., published 1993 by the National Committee for Clinical Laboratory Standards, Villanova, Pa., USA. The activity of compounds of this invention against Staphylococcus aureus, Staphylococcus epidermidis, Streptococcus pneumoniae, Enterococcus faecalis, Moraxella catarrhalis and H. influenzae is shown in Table 1. No. 1 is Methicillin-susceptible S. aureus UC® 9213. No. 2 is Moraxella catarrhalis UC® 30610. Minimum inhibitory concentration: lowest concentration of drug (μg/mL) that inhibits visible growth of the organism.

[2] = system: Moraxella catarrhalis UC® 30610; experiment: Minimum inhibitory concentration (MIC) by agar dilution, Moraxella catarrhalis; format: cell-based; conditions: UC30610, lowest concentration that inhibits visible growth, read-out: Minimum Inhibitory Concentration M.CAT.
From the text: as §1

Compound	MIC [1] [µg/mL]	MIC [2] [µg/mL]	melting point
CC(=O)NCC1CN(c2ccc3c(c2)CC(C)S3)C(=O)O1 (stereo in doubt) [Example 20, N-{[(5R)-3-(2(+)-methyl-2,3-dihydro-1-benzothien-5-yl)-2-oxo-1,3-oxazolidin-5-yl]methyl}acetamide]	4 (≈ 13.1 µM)	16 (≈ 52.2 µM)	
CC(=O)NC[C@H]1CN(c2ccc3c(c2)CC(C)N3CCF)C(=O)O1 (stereo partly drawn) [Example 1, N-({(5S)-3-[1-(2-Fluoroethyl)-2-methyl-2,3-dihydro-1H-indol-5-yl]-2-oxo-1,3-oxazolidin-5-yl}methyl)acetamide]			127 to 130 °C
CC(=O)NC[C@H]1CN(c2ccc3c(c2)CC(C)N3C(=O)CO)C(=O)O1 (stereo partly drawn) [Example 2, N-{[(5S)-3-(1-Glycoloyl-2-methyl-2,3-dihydro-1H-indol-5-yl)-2-oxo-1,3-oxazolidin-5-yl]methyl}acetamide]			130 to 133 °C
CC(=O)NC[C@H]1CN(c2ccc3c(c2)C[C@@H](C)N3C(=O)CO)C(=O)O1 [Example 3, N-({(5S)-3-[(2R)-1-Glycoloyl-2-methyl-2,3-dihydro-1H-indol-5-yl]-2-oxo-1,3-oxazolidin-5-yl}methyl)acetamide]	4 (≈ 11.5 µM)	4 (≈ 11.5 µM)	
CC(=O)NC[C@H]1CN(c2ccc3c(c2)C[C@@H](C)N3C=O)C(=O)O1 [Example 4, N-({(5S)-3-[(2R)-1-Formyl-2-methyl-2,3-dihydro-1H-indol-5-yl]-2-oxo-1,3-oxazolidin-5-yl}methyl)acetamide]	1 (≈ 3.15 µM)	4 (≈ 12.6 µM)	158 to 159 °C
CCC(=O)NC[C@H]1CN(c2ccc3c(c2)C[C@@H](C)N3C=O)C(=O)O1 [Example 5, N-({(5S)-3-[(2R)-1-Formyl-2-methyl-2,3-dihydro-1H-indol-5-yl]-2-oxo-1,3-oxazolidin-5-yl}methyl)propanamide]	2 (≈ 6.04 µM)	4 (≈ 12.1 µM)	118 to 119 °C
CC(=S)NC[C@H]1CN(c2ccc3c(c2)C[C@@H](C)N3C=O)C(=O)O1 [Example 6, N-({(5S)-3-[(2R)-1-Formyl-2-methyl-2,3-dihydro-1H-indol-5-yl]-2-oxo-1,3-oxazolidin-5-yl}methyl)ethanethioamide]	< 0.5	1 (≈ 3 µM)	95 to 96 °C
COCC(=O)N1c2ccc(N3C[C@H](CNC(C)=O)OC3=O)cc2C[C@H]1C [Example 7, N-({(5S)-3-[(2R)-1-(2-Methoxyacetyl)-2-methyl-2,3-dihydro-1H-indol-5-yl]-2-oxo-1,3-oxazolidin-5-yl}methyl)acetamide]	4 (≈ 11.1 µM)	8 (≈ 22.1 µM)	174 to 175 °C
CC(=O)NC[C@H]1CN(c2ccc3c(c2)C[C@@H](C)N3C(=O)COC(C)=O)C(=O)O1 [Example 8, 2-((2R)-5-{(5S)-5-[(Acetylamino)methyl]-2-oxo-1,3-oxazolidin-3-yl}-2-methyl-2,3-dihydro-1H-indol-1-yl)-2-oxoethyl acetate]	8	16	186 to 187 °C
CC(=O)NC[C@H]1CN(c2ccc3c(c2)C[C@@H](C)N3C(C)=O)C(=O)O1 [Example 9, N-({(5S)-3-[(2R)-1-Acetyl-2-methyl-2,3-dihydro-1H-indol-5-yl]-2-oxo-1,3-oxazolidin-5-yl}methyl)acetamide]	2 (≈ 6.04 µM)	8 (≈ 24.1 µM)	184 to 185 °C
CNC(=S)N1c2ccc(N3C[C@H](CNC(C)=O)OC3=O)cc2C[C@H]1C [Example 10, N-[((5S)-3-{(2R)-2-Methyl-1-[(methylamino)carbothioyl]-2,3-dihydro-1H-indol-5-yl}-2-oxo-1,3-oxazolidin-5-yl)methyl]acetamide]	4 (≈ 11 µM)	8 (≈ 22.1 µM)	109 to 111 °C
CC(=O)OCC(=O)N1c2ccc(N3C[C@H](CNC(C)=S)OC3=O)cc2C[C@H]1C [Example 11, 2-((2R)-5-{(5S)-5-[(Ethanethioylamino)methyl]-2-oxo-1,3-oxazolidin-3-yl}-2-methyl-2,3-dihydro-1H-indol-1-yl)-2-oxoethyl acetate]	1	4	
CC(=S)NC[C@H]1CN(c2ccc3c(c2)C[C@@H](C)N3C(=O)CO)C(=O)O1 [Example 12, N-({(5S)-3-[(2R)-1-Glycoloyl-2-methyl-2,3-dihydro-1H-indol-5-yl]-2-oxo-1,3-oxazolidin-5-yl}methyl)ethanethioamide]	< 0.5	1 (≈ 2.75 µM)	115 to 117 °C
CC(=O)NC[C@H]1CN(c2ccc3c(c2)CCC(C)N3C=O)C(=O)O1 (stereo partly drawn) [Example 13, N-{[(5S)-3-(1-Formyl-2-methyl-1,2,3,4-tetrahydro-6-quinolinyl)-2-oxo-1,3-oxazolidin-5-yl]methyl}acetamide]			85 to 87 °C
CC(=O)NC[C@H]1CN(c2ccc3c(c2)CC[C@@H](C)N3C=O)C(=O)O1 [Example 14, N-({(5S)-3-[(2R)-1-Formyl-2-methyl-1,2,3,4-tetrahydro-6-quinolinyl]-2-oxo-1,3-oxazolidin-5-yl}methyl)acetamide]	2 (≈ 6.04 µM)	4 (≈ 12.1 µM)	89 to 91 °C
CC(=S)NC[C@H]1CN(c2ccc3c(c2)CC[C@@H](C)N3C=O)C(=O)O1 [Example 15, N-({(5S)-3-[(2R)-1-Formyl-2-methyl-1,2,3,4-tetrahydro-6-quinolinyl]-2-oxo-1,3-oxazolidin-5-yl}methyl)ethanethioamide]	< 0.5	1 (≈ 2.88 µM)	184 to 186 °C
CC(=O)NC[C@H]1CN(c2ccc3c(c2)OCC(C)N3C=O)C(=O)O1 (stereo partly drawn) [Example 16, N-{[(5S)-3-(4-Formyl-3-methyl-3,4-dihydro-2H-1,4-benzoxazin-7-yl)-2-oxo-1,3-oxazolidin-5-yl]methyl}acetamide]			118 to 121 °C (dec.)
CC(=O)NC[C@H]1CN(c2ccc3c(c2)OC[C@@H](C)N3C=O)C(=O)O1 [Example 17, N-({(5S)-3-[(3R)-4-Formyl-3-methyl-3,4-dihydro-2H-1,4-benzoxazin-7-yl]-2-oxo-1,3-oxazolidin-5-yl}methyl)acetamide]	4 (≈ 12 µM)	8 (≈ 24 µM)	148 to 151 °C
CC(=S)NC[C@H]1CN(c2ccc3c(c2)OC[C@@H](C)N3C=O)C(=O)O1 [Example 18, N-({(5S)-3-[(3R)-4-Formyl-3-methyl-3,4-dihydro-2H-1,4-benzoxazin-7yl]-2-oxo-1,3-oxazolidin-5-yl}methyl)ethanethioamide]	< 0.5	2 (≈ 5.72 µM)	95 to 98 °C
CC(=O)NC[C@H]1CN(c2ccc3c(c2)CC(CF)N3C=O)C(=O)O1 (stereo partly drawn) [Example 19, (S)-N-[[3-[1-Formyl-2-(fluoromethyl)-5-indolinyl]-2-oxo-5-oxazolidinyl]methyl]acetamide]	4 (≈ 11.9 µM)	16 (≈ 47.7 µM)	132 to 136 °C
CC(=S)NC[C@H]1CN(c2ccc3c(c2)CC(C(C)(C)C)N3C=O)C(=O)O1 (stereo partly drawn) [Example 21, N-[[(5S)-3-[2-(1,1-dimethylethyl)-1-formyl-2,3-dihydro-1H-indol-5-yl]-2-oxo-5-oxazolidinyl]methyl]ethanethioamide]	2 (≈ 5.33 µM)	4 (≈ 10.7 µM)	219 to 221 °C
CC(=O)NC[C@H]1CN(c2ccc(N3CCN(C(=O)CO)CC3)c(F)c2)C(=O)O1 [eperezolid, reference compound]	4 (≈ 10.1 µM)	8 (≈ 20.3 µM)	
CC(=O)NC[C@H]1CN(c2ccc(N3CCOCC3)c(F)c2)C(=O)O1 [linezolid, reference compound]	4 (≈ 11.9 µM)	8 (≈ 23.7 µM)	
CN[C@H](CC(C)C)C(=O)N[C@H]1C(=O)N[C@@H](CC(N)=O)C(=O)N[C@H]2C(=O)N[C@H]3C(=O)N[C@H](C(=O)N[C@H](C(=O)O)c4cc(O)cc(O)c4-c4cc3ccc4O)[C@H](O)c3ccc(c(Cl)c3)Oc3cc2cc(c3O[C@@H]2O[C@H](CO)[C@@H](O)[C@H](O)[C@H]2O[C@H]2C[C@](C)(N)[C@H](O)[C@H](C)O2)Oc2ccc(cc2Cl)[C@H]1O [vancomycin, reference compound]	1 (≈ 0.69 µM)	> 32	
